Holding throughout (assay): growth of human tumour cells (NCI), 48 h
For test [1], the system named is NCI-H23 lung.
The subject of test [2] is SK-MEL-28 melanoma.
Test [3] has as its system NCI-H522 lung.
Test [4] concerns LOX IMVI melanoma.
Test [5] has as its system SK-OV-3 ovarian.
For test [6], the system named is SNB-75 CNS.
Test [7] has as its system DU-145 prostate.
The test system of test [8] is UACC-257 melanoma.
Test [9] has as its system MALME-3M melanoma.

SMILES strings stand for the structures.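 Tested at 5 concentrations; 48 h exposure; 96-well plates; endpoints linearly interpolated, else capped at highest concentration. At the GI50, growth is halved. TGI: concentration producing complete growth inhibition.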

On to `CC(C)OC1=C(CC2(C)OCCO2)C(=O)C12OCCO2`, for which the TGI in test [1], in [2], in test [3], in test [4], in test [5] and in [6] was over 100 µM each time. In addition, the TGI in test [7] and in test [8] was over 100 µM in each case.
Take `COc1cc(C2c3cccc4cccc(c34)C3CCC(=O)N32)cc(OC)c1O` (stereo not drawn): the TGI in [1], in test [2], in test [5], in test [6], in test [7] and in test [8] was over 50 µM each time.
On to `COc1ccc(C2N(c3ccc(C)c(N=C=O)c3)C(=O)N3C(c4ccc(OC)cc4)N(c4ccc(C)c(N=C=O)c4)C(=O)N23)cc1` (stereo not drawn), for which the TGI in test [1] was over 100 µM; in test [2] it was over 100 µM; in test [4], over 100 µM; in test [9] it was 96.1 µM; in [6], over 100 µM; in test [7] it was over 100 µM. Moreover, the TGI in test [8] is over 100 µM.
As to `C=C(C)C1(Sc2ccc(OC)cc2)CC1`, the TGI is over 100 µM in test [1]; over 100 µM in test [2]; 33.4 µM in test [4]; 66.9 µM in test [9]; over 100 µM in [5]; 78.5 µM in test [6]. Besides, the TGI in [7] was over 100 µM; in [8], 55.7 µM.
As to `O=c1c2cccnc2oc2c(Cl)cc(-c3nn[nH]n3)cc12`, the TGI in test [1], in test [2], in test [9], in test [5], in [6] and in [7] was over 100 µM in each case.
For the compound `COC(=O)/C1=C/C=C\C[C@@]2(C)CC(c3ccoc3)OC(=O)[C@@H]2CC[C@H]1C` (stereo partly drawn), the TGI in test [1], in test [2], in test [4], in test [9], in [5] and in test [6] was over 25 µM each time. The same compound displayed a TGI in test [8] of over 25 µM.
`Cc1nc(N)c(N2CCN(S(=O)(=O)N(Cc3ccccc3)Cc3ccccc3)CC2)c(=O)[nH]1`: the TGI in test [1] was 47.8 µM; in test [2], 34.1 µM; in [4] it was over 100 µM; in test [9], 56.6 µM; in test [6], 28.6 µM; in test [7], 52.7 µM. The same compound showed a TGI in [8] of 61.5 µM.
As for `COC(=O)N[C@@H]1C[C@H]2CC[C@]1(O[Si](C(C)C)(C(C)C)C(C)C)C(=O)C2`, the TGI is 39.3 µM in test [1]; 36.8 µM in [2]; 24 µM in [3]; 46.5 µM in test [5]; 41.9 µM in test [6]; over 100 µM in test [7]. In test [8], this compound came in with a TGI of 38.4 µM.
Consider `Cc1ccc2sc3c(NCCCN)nc4ccccc4c3c(=O)c2c1`, for which the GI50 is 1.82 µM in test [1]; 1.78 µM in test [2]; 1.66 µM in test [4]; 1.74 µM in test [9]; 1.64 µM in [6]; 1.87 µM in test [7]. The GI50 in [8] was 2.04 µM. Moreover, the TGI in [1] was 3.37 µM; in test [2], 3.28 µM; in [4] it was 3.08 µM; in [9] it was 3.3 µM; in test [6], 3.56 µM; in test [7] it was 3.39 µM. In addition, the TGI in [8] amounted to 4.21 µM.
Regarding `NC1(c2cc3ccccc3s2)CCCCCC1`, the TGI in test [1] was found to be 34 µM; in test [2], 30.9 µM; in test [4] it was 43 µM; in [5] it was 31.2 µM; in [6], 23.2 µM; in test [7], 30.9 µM. Besides, in test [8], the TGI stood at 30.1 µM.
For `O=C(CSc1nc2ccc(I)cc2c(=O)n1Cc1ccccc1)Nc1ccccc1`, the TGI was over 100 µM in test [1]; over 100 µM in test [2]; 90.6 µM in test [3]; over 100 µM in test [4]; 43.8 µM in [9]; 46.4 µM in test [5]. Further, the values for the TGI in test [6] and in [7] were 12.2 µM and over 100 µM, respectively.
On to `O=c1c(O)c(-c2ccccc2)oc2c(CP(=O)(O)O)cccc12`, for which the TGI in [1], in [3], in [9], in test [5], in test [7] and in test [8] was over 100 µM throughout.
As to `O=S(=O)(O)c1ccc(O)c(N=Nc2c(O)ccc3ccccc23)c1`, the TGI in [1], in test [2], in test [3], in test [4], in test [5] and in test [6] was over 100 µM throughout. Also, the TGI in test [7] and in [8] was over 100 µM in each case.
For `CCCN=C1NC(C)=CSC(Nc2ccccc2)=C1C#N`, the TGI in test [1], in test [2], in [3], in [9], in test [5] and in [7] was over 100 µM throughout.
With `CCOC(=O)c1ccc2nc3n(c2c1)C(c1c(F)cccc1F)SC3` (stereo not drawn), the TGI in test [1], in test [2], in [4], in [5], in test [6] and in [7] was over 100 µM throughout. The compound also registered a TGI in test [8] of over 100 µM.
For the compound `CC1CN(c2cc3c(cc2F)c(=O)c(C(=O)O)cn3-c2ccc(N3CCN(C)CC3)cn2)CC(C)N1` (stereo not drawn), the TGI in test [1], in test [2], in [9], in [5], in test [6] and in test [7] was over 100 µM throughout. The compound also had a TGI in [8] of over 100 µM.
In the case of `CCCCCCc1ccc(CCCCCCCC(=O)O)o1`, the TGI in [1], in test [2], in [4], in test [5], in test [6] and in test [7] was over 100 µM throughout. The TGI in [8] was over 100 µM.
Regarding `COP(=O)(CP(=O)(OC)OCCC(C)CCC=C(C)C)OC` (stereo not drawn), the TGI in [1], in test [2], in test [3], in test [4], in test [9] and in [5] was over 100 µM each time. Besides, the TGI in test [6] and in [8] was over 100 µM in each case.
For `COC1C(O)C(C)OC(O[C@H]2CC[C@@]3(C)C(CC[C@@H]4[C@@H]3CC[C@]3(C)[C@@H](C(C)OC5OC(CO)C(O)C(O)C5O)CC[C@]43O)C2)C1O` (stereo partly drawn), the TGI in [1], in test [2], in test [3], in test [4], in test [5] and in [6] was over 25 µM each time. This compound displayed a TGI in [8] of over 25 µM.
Regarding `CC(=O)NC1C(OCc2ccccc2)OC(CO)C(O)C1OC(C)C(=O)NC(C(=O)NC(CCC(=O)NCCCNc1ccc([N+](=O)[O-])c2[nH]c3ccccc3c(=O)c12)C(N)=O)C(C)C` (stereo not drawn), the TGI in test [1], in [2], in test [3], in test [4], in test [5] and in test [6] was over 100 µM throughout. In addition, the TGI in [7] and in [8] was over 100 µM each time.
For `CC(=O)/C=C(/C)[O-].CC(=O)/C=C(/C)[O-].CC(=O)[CH-]C(C)=O.CC(=O)[CH-]C(C)=O.[Zr+4]`, the GI50 in test [1] is over 100 µM; in test [2] it was over 100 µM; in test [3], over 100 µM; in test [4] it was over 100 µM; in [9], 12.7 µM; in [5], over 100 µM. For the same compound, the GI50 in test [6] and in test [8] was over 100 µM throughout. Besides, the TGI in test [1] was over 100 µM; in test [2] it was over 100 µM; in test [3] it was over 100 µM; in test [4], over 100 µM; in test [9], 32.5 µM; in test [5], over 100 µM. Moreover, the TGI in [6] and in [8] was over 100 µM each time.
`CCN(CC)/N=C\c1c2ccccc2cc2ccccc12`: the TGI in test [1] is over 100 µM; in test [2] it was over 100 µM; in test [3] it was 63.7 µM; in [9], over 100 µM; in [5], over 100 µM; in test [6], 68.7 µM. In addition, the TGI is over 100 µM in [7] and 72.4 µM in test [8].
As for `CC(C)(C)OC(=O)N1C(=O)C2CCCC21` (stereo not drawn), the TGI in [1], in test [2], in test [4], in [5], in [6] and in test [7] was over 100 µM each time. In test [8], this compound gave a TGI of over 100 µM.
For the compound `C=CC(=O)N1C/C(=C\c2ccc(OC)cc2)C(=O)/C(=C/c2ccc(OC)cc2)C1`, the TGI in test [1] amounted to 4.79 µM; in test [2], 10.8 µM; in test [4] it was 3.37 µM; in [9], 8.4 µM; in test [5], 8.39 µM; in test [6], 27.3 µM. Also, the TGI in test [7] is 23.1 µM; in [8], over 31.6 µM.

The values are drawn from PubChem BioAssay (NCI).
